Data taken from patent publication US10220112B2, “Cyclic antimicrobial pseudopeptides and uses thereof” (INSERM (INSTITUT NATIONAL DE LA SANTE ET DE LA RECHERCHE …, priority 2014, dated 2019).
Values after ≈ are worked out from the molar mass of the structure shown.

What was measured:
human erythrocytes = assay: Lytic activity against human erythrocytes; assay type: cell-based; conditions: Table 2; for Human cells H50: maximal concentration 500 μM
Experimental: Human blood was collected from EFS (‘Etablissement Francais du Sang’) in Rennes (France). […] After centrifugation, the absorbance of the supernatant was measured at 414 nm. Three wells were positive controls, where the RBC were mixed with water 1% Triton X-100, in these wells the totality of RBC were hemolyzed and the release of hemoglobin was considered to be 100%. Three wells were negative controls, where the RBC were mixed with PBS buffer, in these wells hemolysis was considered to be null. The percentage of hemolysis in each test well was calculated by comparing with controls. For each peptide, bloods from three different donors were tested.

[1] = tested on: MRSA strain S. aureus N315; assay: microbe, parasite or virus in culture; conditions: Staphylococcus aureus, read-out: MRSA MIC
[2] = tested on: VISA strain S. aureus Mu 50; assay: microbe, parasite or virus in culture; conditions: Staphylococcus aureus, read-out: VISA MIC
E. coli strain ML-35p = assay: E. coli outer and inner membrane permeabilization assays (nitrocefin / ONPG); assay type: cell-based, Escherichia coli
Experimental: E. coli outer and inner membrane permeability was determined by using E. coli strain ML-35p, which is lactose permease deficient. Nitrocefin, β-lactam is excluded by the outer cell membrane but, if it can pass this barrier thanks to the action of an AMP, it is then cleaved by the β-lactamase localized within the periplasm. ONPG, passes through lac permease and is cleaved by the cytoplasmic β-galactosidase, however with the ML-35p E. coli strain, ONPG is excluded unless permeabilization is achieved. The permeabilization assays were carried out with 100 μL of bacteria in MH broth at A600 nm 0.1-0.2 (10^7 cfu/mL, density necessary to detect degradation products). […] ONPG was added to a 100 μg/ml final concentration and substrate cleavage was monitored by light absorption measurements at 420 nm. Polymixin B at 8 μM against 10^7 cfu/mL was used as positive control. Bacterial suspension in MH broth plus substrates was used as negative control (untreated cells).

Question: Which results are given for `CN[C@H](CC(C)C)C(=O)N[C@H]1C(=O)N[C@@H](CC(N)=O)C(=O)N[C@H]2C(=O)N[C@H]3C(=O)N[C@H](C(=O)N[C@H](C(=O)O)c4cc(O)cc(O)c4-c4cc3ccc4O)[C@H](O)c3ccc(c(Cl)c3)Oc3cc2cc(c3O[C@@H]2O[C@H](CO)[C@@H](O)[C@H](O)[C@H]2O[C@H]2C[C@](C)(N)[C@H](O)[C@H](C)O2)Oc2ccc(cc2Cl)[C@H]1O` [Vancomycin, reference compound]?
Answer: Human cells % hemolysis at 500 μM (human erythrocytes): 0.15%; Human cells H50 (human erythrocytes): nd (not detectable at the maximal concentration tested (500 μM)); MIC [1]: 32 µM (≈ 46.4 µg/mL); MIC [2]: 1 µM (≈ 1.45 µg/mL)

Question: Which results are given for `COc1cccc(OC)c1C(=O)N[C@@H]1C(=O)N2[C@@H]1SC(C)(C)[C@@H]2C(=O)O` [Meticillin, reference compound]?
Answer: Human cells % hemolysis at 500 μM (human erythrocytes): 0.12%; Human cells H50 (human erythrocytes): nd (not detectable at the maximal concentration tested (500 μM)); MIC [2]: > 500 µM

Question: With polymixin B as the compound, how does the “time to detection of the reporter, inner membrane” value (E. coli strain ML-35p; ONPG, polymixin B 8 μM, peptides 6 μM and 12 μM) read?
Answer: 20 min

Question: What about the “time to detection of the reporter, outer membrane” value (E. coli strain ML-35p; nitrocefin, polymixin B at 8 μM) of the same compound?
Answer: 30 s
